Results on five compounds are retold here after US6207404A, “Coumarin-based CYP3A fluorescent assay reagents” (Gentest Corporation, priority 1999, dated 2001).

Data set [1] is described as follows: Quantum yield of the fluorescent product. Format: physicochemical. The note with it: relative to the product of BzRes.
The subject of another data set is other human P450s. The note with it: Code et al. 1997; Morse and Lu 1998; cited from earlier work.
The next data set concerns human CYP2B6. Conditions: Code et al. 1997; Morse and Lu 1998; cited from earlier work.
In data set [2] the target is T1, human CYP3A4 (Homo sapiens, UniProt P08684). The data set can be described thus: biochemical. The note with it: 37° C., 20 minutes.
Data set [3] deals with T1, human CYP3A4. Nature of the data set: Enzyme kinetics of substrate turnover with cDNA-expressed CYP3A4 (fluorometric). Format: biochemical. As for the experimental part: The evaluation of compounds of Formula I were initially performed by measuring the kinetics of turnover using cDNA-expressed CYP3A4. In most instances, Vmax and Km values are important for the optimization of the assay conditions and for setting the parameters for inhibition experiments. Fluorometric assays for the turnover of compounds of Formula I by CYP3A4 were performed based on a modification of the method by Crespi et al. Anal Biochem. 248, 188-190, (1997), (described below).
Example Compound I. Assays were conducted in 96 well microtiter plates (Corning COSTAR, cat. no. 3915). The substrate, compound I, was prepared in acetonitrile. After cofactors addition, the plates were prewarmed to 37° C. Incubations were initiated by the addition of prewarmed buffer and enzyme. The enzymes were commercially available, baculovirus/insect cell expressed human CYP3A4 (SUPERSOMES®, GENTEST Corporation). The amount of enzyme added per well was 1 pmole. […] Fluorescence per well was measured using a BMG FLUOstar Model 403 plate scanner controlled with an IBM-compatible computer. The metabolite was measured using an excitation wavelength of 410 nm and emission wavelength of 538 nm. Data was exported and analyzed using an Excel spreadsheet. The activity was quantified by comparing to a standard curve of 7-hydroxy-4-trifluoromethyl coumarin.

Data set [4] can be described thus: Solubility noted in enzyme kinetics table. The data set is classed as physicochemical. The note with it: at >200 uM.
The test system of data set [5] is panel of cDNA-expressed human P450 enzymes. Nature of the data set: Selectivity of dealkylation in a panel of cDNA-expressed human P450 enzymes. The data set is classed as biochemical. The source says: The selectivity of various P450 isoforms for dealkylation of compound I was examined using a panel of commercially available human cDNA-expressed enzymes. A substrate that is selective for a single P450 isoform (substrate is catalytically turned over by a single P450 isoform) is a desirable trait in that its activity may be examined within a heterogeneous mixture of enzymes, for example, in human liver microsomes. […] Compound I is therefore a more useful substrate for probing CYP3A activity in a heterogeneous mixture than the previous substrate BzRes. These advantages permit the specific detection of low levels of a preselected cytochrome P450 enzyme (e.g., 3A4) contained in various types of samples, e.g., tissue samples, microsomes, and so forth.
Example Compound I. Assays were conducted as described in (1) above except: incubation time was 20 min.; enzymes were commercially available, baculovirus/insect cell expressed human P450s (SUPERSOMES®, GENTEST Corporation); and the amount of enzyme added per well was 10 pmole with the exception of 2.5 pmole for CYP3A enzymes.

The target of data set [6] is T1, human CYP3A4.
The test system of data set [7] is panel of cDNA-expressed human P450 enzymes. The note with it: Ono et al. (1996); cited from earlier work.
Another data set deals with CYP3A4. The note with it: in words; Crespi et al. 1997; cited from earlier work.

T1 sequence (P08684 whole entry): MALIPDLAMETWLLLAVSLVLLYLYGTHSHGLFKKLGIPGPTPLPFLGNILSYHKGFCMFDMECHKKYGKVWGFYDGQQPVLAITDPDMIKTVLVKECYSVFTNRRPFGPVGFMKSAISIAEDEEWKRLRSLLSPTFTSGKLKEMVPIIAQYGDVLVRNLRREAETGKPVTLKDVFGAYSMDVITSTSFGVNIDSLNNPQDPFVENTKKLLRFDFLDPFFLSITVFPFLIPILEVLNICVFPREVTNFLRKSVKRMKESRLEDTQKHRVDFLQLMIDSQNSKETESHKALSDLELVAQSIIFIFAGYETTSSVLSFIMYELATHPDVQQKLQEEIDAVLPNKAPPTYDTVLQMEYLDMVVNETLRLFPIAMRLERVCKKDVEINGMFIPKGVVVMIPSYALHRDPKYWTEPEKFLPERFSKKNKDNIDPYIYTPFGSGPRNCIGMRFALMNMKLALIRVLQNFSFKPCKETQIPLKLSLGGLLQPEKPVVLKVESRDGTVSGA

Turning to `O=c1cc(C(F)(F)F)c2ccc(O)cc2o1` [Compound II, 7-hydroxy-4-trifluoromethylcoumarin], in data set [1], the “quantum yield of product relative to the product of benzyloxyresorufin” value is “greater quantum yield”.

As for `CCOc1ccc2c(C(F)(F)F)cc(=O)oc2c1` [7-Ethoxy-4-trifluoromethylcoumarin], in the data set with other human P450s, the “O-dealkylation by other human P450s” value was “O-dealkylated”. In the data set on human CYP2B6, the “O-dealkylation by human CYP2B6” value is recorded as “O-dealkylated”.

As a reminder, the IC50 is the concentration that gives 50% inhibition. For the compound `CC[C@H]1OC(=O)[C@H](C)[C@@H](O[C@H]2C[C@@](C)(OC)[C@@H](O)[C@H](C)O2)[C@H](C)[C@@H](O[C@@H]2O[C@H](C)C[C@H](N(C)C)[C@H]2O)[C@](C)(O)C[C@@H](C)C(=O)[C@H](C)[C@@H](O)[C@]1(C)O` [Erythromycin], the IC50 against human CYP3A4 [2] (CYP3A4 IC50, substrate BzRes, substrate BzRes) came out at 1700 nM; at human CYP3A4 [2] (CYP3A4 IC50, substrate I, substrate compound I (100 uM)), 4070 nM.

For orientation: Km means the substrate concentration at which the rate is half of its maximum. For the compound `O=c1cc(C(F)(F)F)c2ccc(OCc3ccccc3)cc2o1` [Compound I, 7-Benzyloxy-4-trifluoromethylcoumarin], at human CYP3A4 [3] (cDNA-expressed CYP3A4, at 40 uM substrate), the “Vmax (at 40 uM)” value was determined as 1.5 min⁻¹. Besides, the Km at 0.75 h at human CYP3A4 [3] (human, cDNA-expressed CYP3A4, 1 pmole/well, 37° C., 45 minutes) is greater than 200 µM. Also, the “solubility (remark to Km >200 uM)” value in data set [4] is on record as “exceeds solubility”. Moreover, the “selectivity of dealkylation in panel of human P450 enzymes (FIG. 1)” value in data set [5] (20 min, 10 pmole/well (2.5 pmole for CYP3A enzymes)) is reported as “selective for CYP3A4”. Further, the “rank of CYP1A1 in dealkylation of the substrate” value in data set [5] (CYP1A1) is reported as “second best enzyme”. Further, on human CYP3A4 [6], the “IC50 values with compound I as the substrate compared with BzRes” value was “tend to yield lower IC50 values”.

On to `O=c1ccc2nc3ccc(OCc4ccccc4)cc3oc-2c1` [Benzyloxyresorufin, 7-benzyloxyresorufin], for which the “metabolism by other human cytochromes P450” value in [7] was “significantly metabolized by other human cytochromes P450”. For the same compound, in the data set on CYP3A4, the enzymatic turnover entry is listed as “low enzymatic turnover” and the specificity entry was “poor specificity”.
